Here are results for five compounds from PubChem BioAssay AID1259407 (Chemical Carcinogenesis Research Information System (CCRIS), 2018).

For the data set, the system named is CCRIS mutagenicity, Ames/micronucleus/aberration tests. The data set can be described thus: CCRIS mutagenicity studies.
Setting [1] is: Test System: AMES SALMONELLA TYPHIMURIUM, Strain/Indicator: TA98, Metabolic Activation: NONE, Method: PREINCUBATION

Active and inactive are the calls of the source. No rule for the calls is given here.

`Nc1ccc(Cc2ccc(N)c(Cc3ccc(N)cc3)c2)cc1`: the mutagenic call is, setting by setting: (Test System: AMES SALMONELLA TYPHIMURIUM, Strain/Indicator: TA97, Metabolic Activation: HAMSTER, LIVER, S-9, AROCLOR 1254 (10%), Method: PREINCUBATION) “active; positive”; (Test System: AMES SALMONELLA TYPHIMURIUM, Strain/Indicator: TA97, Metabolic Activation: NONE, Method: PREINCUBATION) “inactive; negative”; (Test System: AMES SALMONELLA TYPHIMURIUM, Strain/Indicator: TA97, Metabolic Activation: RAT, LIVER, S-9, AROCLOR 1254 (10%), Method: PREINCUBATION) “active; positive”; (Test System: AMES SALMONELLA TYPHIMURIUM, Strain/Indicator: TA98, Metabolic Activation: HAMSTER, LIVER, S-9, AROCLOR 1254 (10%), Method: PREINCUBATION) “active; positive”; under setting [1], “inactive; negative”; (Test System: AMES SALMONELLA TYPHIMURIUM, Strain/Indicator: TA98, Metabolic Activation: RAT, LIVER, S-9, AROCLOR 1254 (10%), Method: PREINCUBATION) “active; positive”. The mutagenic call reads like this: (Test System: AMES SALMONELLA TYPHIMURIUM, Strain/Indicator: TA100, Metabolic Activation: HAMSTER, LIVER, S-9, AROCLOR 1254 (10%), Method: PREINCUBATION) “active; positive”; (Test System: AMES SALMONELLA TYPHIMURIUM, Strain/Indicator: TA100, Metabolic Activation: NONE, Method: PREINCUBATION) “inactive; negative”; (Test System: AMES SALMONELLA TYPHIMURIUM, Strain/Indicator: TA100, Metabolic Activation: RAT, LIVER, S-9, AROCLOR 1254 (10%), Method: PREINCUBATION) “active; positive”; (Test System: AMES SALMONELLA TYPHIMURIUM, Strain/Indicator: TA1535, Metabolic Activation: HAMSTER, LIVER, S-9, AROCLOR 1254 (10%), Method: PREINCUBATION) “inactive; negative”; (Test System: AMES SALMONELLA TYPHIMURIUM, Strain/Indicator: TA1535, Metabolic Activation: NONE, Method: PREINCUBATION) “inactive; negative”; (Test System: AMES SALMONELLA TYPHIMURIUM, Strain/Indicator: TA1535, Metabolic Activation: RAT, LIVER, S-9, AROCLOR 1254 (10%), Method: PREINCUBATION) “inactive; negative”. The mutagenic call (Test System: AMES SALMONELLA TYPHIMURIUM, Strain/Indicator: TA1537, Metabolic Activation: HAMSTER, LIVER, S-9, AROCLOR 1254 (10%), Method: PREINCUBATION) was “active; positive” and the mutagenic call (Test System: AMES SALMONELLA TYPHIMURIUM, Strain/Indicator: TA1537, Metabolic Activation: RAT, LIVER, S-9, AROCLOR 1254 (10%), Method: PREINCUBATION) is “active; positive”.
With `Oc1cccc2c1[nH]c1ccccc12`, the mutagenic call (Test System: CHINESE HAMSTER OVARY, Strain/Indicator: CHO-K1-BH4 (HGPRT)/6-THIOGUANINE, Metabolic Activation: RAT, LIVER, S-9, AROCLOR (4%)) is “active; positive”.
For `CC(C)Cc1ccc(C(C)C(=O)O)cc1` (stereo not drawn), the mutagenic call is, setting by setting: (Test System: AMES SALMONELLA TYPHIMURIUM, Strain/Indicator: TA97A, Metabolic Activation: NONE, Method: STANDARD PLATE) “inactive; negative”; (Test System: AMES SALMONELLA TYPHIMURIUM, Strain/Indicator: TA97A, Metabolic Activation: RAT, LIVER, S-9, PHENOBARBITAL, Method: STANDARD PLATE) “inactive; negative”; (Test System: AMES SALMONELLA TYPHIMURIUM, Strain/Indicator: TA98, Metabolic Activation: HAMSTER, LIVER, S-9, AROCLOR 1254, Method: STANDARD PLATE) “inactive; negative”; (Test System: AMES SALMONELLA TYPHIMURIUM, Strain/Indicator: TA98, Metabolic Activation: MOUSE, LIVER, S-9, AROCLOR 1254, Method: STANDARD PLATE) “inactive; negative”; (Test System: AMES SALMONELLA TYPHIMURIUM, Strain/Indicator: TA98, Metabolic Activation: NONE, Method: STANDARD PLATE) “inactive; negative”; (Test System: AMES SALMONELLA TYPHIMURIUM, Strain/Indicator: TA98, Metabolic Activation: RAT, LIVER, S-9, AROCLOR 1254, Method: STANDARD PLATE) “inactive; negative”. In addition, the mutagenic call was “inactive; negative” (Test System: AMES SALMONELLA TYPHIMURIUM, Strain/Indicator: TA100, Metabolic Activation: HAMSTER, LIVER, S-9, AROCLOR 1254, Method: STANDARD PLATE); “inactive; negative” (Test System: AMES SALMONELLA TYPHIMURIUM, Strain/Indicator: TA100, Metabolic Activation: MOUSE, LIVER, S-9, AROCLOR 1254, Method: STANDARD PLATE); “inactive; negative” (Test System: AMES SALMONELLA TYPHIMURIUM, Strain/Indicator: TA100, Metabolic Activation: NONE, Method: STANDARD PLATE); “inactive; negative” (Test System: AMES SALMONELLA TYPHIMURIUM, Strain/Indicator: TA100, Metabolic Activation: RAT, LIVER, S-9, AROCLOR 1254, Method: STANDARD PLATE); “inactive; negative” (Test System: AMES SALMONELLA TYPHIMURIUM, Strain/Indicator: TA100, Metabolic Activation: RAT, LIVER, S-9, PHENOBARBITAL, Method: STANDARD PLATE); “inactive; negative” (Test System: AMES SALMONELLA TYPHIMURIUM, Strain/Indicator: TA102, Metabolic Activation: NONE, Method: STANDARD PLATE). In addition, the mutagenic call was “inactive; negative” (Test System: AMES SALMONELLA TYPHIMURIUM, Strain/Indicator: TA102, Metabolic Activation: RAT, LIVER, S-9, PHENOBARBITAL, Method: STANDARD PLATE); “inactive; negative” (Test System: AMES SALMONELLA TYPHIMURIUM, Strain/Indicator: TA1535, Metabolic Activation: HAMSTER, LIVER, S-9, AROCLOR 1254, Method: STANDARD PLATE); “inactive; negative” (Test System: AMES SALMONELLA TYPHIMURIUM, Strain/Indicator: TA1535, Metabolic Activation: MOUSE, LIVER, S-9, AROCLOR 1254, Method: STANDARD PLATE); “inactive; negative” (Test System: AMES SALMONELLA TYPHIMURIUM, Strain/Indicator: TA1535, Metabolic Activation: NONE, Method: STANDARD PLATE); “inactive; negative” (Test System: AMES SALMONELLA TYPHIMURIUM, Strain/Indicator: TA1535, Metabolic Activation: RAT, LIVER, S-9, AROCLOR 1254, Method: STANDARD PLATE); “inactive; negative” (Test System: AMES SALMONELLA TYPHIMURIUM, Strain/Indicator: TA1537, Metabolic Activation: HAMSTER, LIVER, S-9, AROCLOR 1254, Method: STANDARD PLATE). Further, the mutagenic call is, setting by setting: (Test System: AMES SALMONELLA TYPHIMURIUM, Strain/Indicator: TA1537, Metabolic Activation: MOUSE, LIVER, S-9, AROCLOR 1254, Method: STANDARD PLATE) “inactive; negative”; (Test System: AMES SALMONELLA TYPHIMURIUM, Strain/Indicator: TA1537, Metabolic Activation: NONE, Method: STANDARD PLATE) “inactive; negative”; (Test System: AMES SALMONELLA TYPHIMURIUM, Strain/Indicator: TA1537, Metabolic Activation: RAT, LIVER, S-9, AROCLOR 1254, Method: STANDARD PLATE) “inactive; negative”; (Test System: AMES SALMONELLA TYPHIMURIUM, Strain/Indicator: TA1538, Metabolic Activation: HAMSTER, LIVER, S-9, AROCLOR 1254, Method: STANDARD PLATE) “inactive; negative”; (Test System: AMES SALMONELLA TYPHIMURIUM, Strain/Indicator: TA1538, Metabolic Activation: MOUSE, LIVER, S-9, AROCLOR 1254, Method: STANDARD PLATE) “inactive; negative”; (Test System: AMES SALMONELLA TYPHIMURIUM, Strain/Indicator: TA1538, Metabolic Activation: NONE, Method: STANDARD PLATE) “inactive; negative”. Also, the mutagenic call (Test System: AMES SALMONELLA TYPHIMURIUM, Strain/Indicator: TA1538, Metabolic Activation: RAT, LIVER, S-9, AROCLOR 1254, Method: STANDARD PLATE) is “inactive; negative”.
For the compound `COC(=O)/C(C#N)=C/c1ccc([N+](=O)[O-])o1`, the mutagenic call under setting [1] is “active; positive”.
For the compound `CC(Br)C(Br)CCl` (stereo not drawn), the mutagenic call by setting is: (Test System: AMES SALMONELLA TYPHIMURIUM, Strain/Indicator: TA100, Metabolic Activation: RAT, LIVER, MICROSOMES, PHENOBARBITAL, Method: PREINCUBATION) “active; positive”; (Test System: AMES SALMONELLA TYPHIMURIUM, Strain/Indicator: TA100, Metabolic Activation: RAT, LIVER, MICROSOMES, Method: PREINCUBATION) “active; positive”.
